# Measured values: patent US7105173B1, “Nicotine replacement applique” (priority 2002, dated 2006)
# Experiments:
# [1] = cited from earlier work
smiles,measurement,setting,value
CN1CCCC1c1cccnc1 (centres unmarked) [nicotine],LD50 oral level expressed as total amount for a small infant,,about 250 mg
same,LD50 oral level,[1],approximately 55 milligrams per Kilogram of body weight
